The text below walks through data of ChEMBL document CHEMBL1201862, “PubChem BioAssay data set” (2004).

SMILES strings stand for the structures. Active and inactive are the calls of the source. Bounds are passed on as bounds.

By EC50 is commonly meant the concentration at which the effect is half-maximal. As a reminder, the IC50 is the concentration at which inhibition is half-maximal. The Ki is a measure of affinity in units of concentration, obtained from inhibition or displacement.

One test deals with Streptococcus. Description: GAS UMAA2166 growth inhibition – luminescence, BacTiterGlo, counter-screen for streptokinase expression inhibitor project, dose response (AID 1915).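 Note: potency for reduction of bacterial viability or growth.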 It counts as functional, organism-based. On the technique in general: Counterscreens check selectivity or assay interference.
The target in test [1] is T1, Sentrin-specific protease 8 (Homo sapiens, UniProt Q96LD8).
T1 sequence (Q96LD8 whole entry): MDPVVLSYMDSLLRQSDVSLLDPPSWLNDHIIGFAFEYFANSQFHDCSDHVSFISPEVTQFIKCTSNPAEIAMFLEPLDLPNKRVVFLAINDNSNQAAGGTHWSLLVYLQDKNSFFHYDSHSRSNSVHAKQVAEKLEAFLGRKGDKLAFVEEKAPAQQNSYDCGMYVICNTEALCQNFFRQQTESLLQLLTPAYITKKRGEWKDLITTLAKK
As to the kind of experiment: inhibition of human SENP8 cleavage activity – biochemical, luminescence, SAR follow-up (AID 504501). It counts as functional.

Another test deals with T2, Caspase-3 (Homo sapiens, UniProt P42574).
T2 sequence (P42574 whole entry): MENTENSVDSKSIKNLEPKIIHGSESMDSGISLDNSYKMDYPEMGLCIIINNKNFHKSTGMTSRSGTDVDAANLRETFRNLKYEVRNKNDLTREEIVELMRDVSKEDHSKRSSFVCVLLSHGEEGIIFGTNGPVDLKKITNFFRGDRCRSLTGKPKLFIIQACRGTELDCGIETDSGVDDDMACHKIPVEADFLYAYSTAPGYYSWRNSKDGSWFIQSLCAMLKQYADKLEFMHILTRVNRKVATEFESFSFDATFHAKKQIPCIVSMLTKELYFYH
Description: SAR Analysis of small molecule inhibitors of Sentrin-specific proteases (SENPs) using a Caspase-3 Selectivity assay. [Related pubchem assays (depositor defined):AID2540, AID2599, AID434973, AID489001]. Format: functional.

The next test concerns the target Large T antigen (Simian virus 40, UniProt P03070). Format: functional, Betapolyomavirus macacae.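 Note: Confirmatory-stage PubChem screen for compounds that inhibit SV40 T antigen.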
The next test concerns the target Nonstructural protein 1 (Influenza A virus, UniProt Q194T2). Format: functional, Influenza A virus (A/California/07/2009(H1N1)).
The nature of test [2]: Counterscreen for AddAB inhibitors: absorbance-based bacterial cell-based high throughput dose response assay for inhibitors of bacterial viability. [Related pubchem assays (depositor defined):AID435030, AID449728, AID449731, AID488942, AID488955, AID488956]. Format: functional.
Test [3] deals with Glucose-6-phosphate 1-dehydrogenase (Homo sapiens, UniProt P11413). As to the kind of experiment: inhibition of Homo sapiens G6PD, dose series – biochemical, fluorescence, selectivity assay for P. falciparum G6PD inhibitor project, dose response (AID 504792). Format: functional.
In test [4] the target is T3, Oxysterols receptor LXR-beta (Homo sapiens, UniProt P55055).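 Note: Cell-based luminescence dose-response assay of agonist activity at LXR, run as a confirmatory counterscreen to a daf-12 agonist screen; HEK293 cells with Gal4-LXR fusion and GAL4-driven luciferase reporter; agonist potency from rising luciferase signal of a Gal4-LXR reporter.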
T3 sequence (P55055 whole entry): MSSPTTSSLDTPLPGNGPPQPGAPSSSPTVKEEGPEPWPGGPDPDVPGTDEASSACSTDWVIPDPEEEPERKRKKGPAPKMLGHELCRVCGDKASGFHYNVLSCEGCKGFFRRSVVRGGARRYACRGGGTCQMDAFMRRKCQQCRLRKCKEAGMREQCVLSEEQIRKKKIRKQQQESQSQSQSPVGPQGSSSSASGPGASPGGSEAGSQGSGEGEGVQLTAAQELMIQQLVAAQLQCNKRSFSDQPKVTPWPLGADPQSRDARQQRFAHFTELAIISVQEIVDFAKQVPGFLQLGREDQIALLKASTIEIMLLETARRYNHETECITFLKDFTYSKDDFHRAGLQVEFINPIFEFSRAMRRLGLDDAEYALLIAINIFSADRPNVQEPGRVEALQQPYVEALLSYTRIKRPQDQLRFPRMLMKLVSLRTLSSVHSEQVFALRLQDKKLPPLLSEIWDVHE
Format: functional, cell-based.

Test [5] addresses Megakaryocyte-associated tyrosine-protein kinase (Homo sapiens, UniProt P42679). Format: functional.
Test [6] concerns the target Serine/threonine-protein kinase PLK3 (Homo sapiens, UniProt Q9H4B4). It counts as functional.
The target in test [7] is Eukaryotic elongation factor 2 kinase (Homo sapiens, UniProt O00418). Format: functional.
Test [8] has as its target Serine/threonine-protein kinase 17A (Homo sapiens, UniProt Q9UEE5). It counts as functional.
For test [9], the target named is Mitogen-activated protein kinase 8 (Homo sapiens, UniProt P45983). Format: functional.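 Note: value comes from one member of a kinome-wide kinase profiling panel.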
Test [10] addresses Tyrosine-protein kinase BTK (Homo sapiens, UniProt Q06187). Format: functional.
The target of test [11] is Mast/stem cell growth factor receptor Kit (Homo sapiens, UniProt P10721). Format: functional.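 Note: KIT entry within a kinase panel assay.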
The target in test [12] is Homeodomain-interacting protein kinase 2 (Homo sapiens, UniProt Q9H2X6). Format: functional.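 Note: measured within a kinome-wide kinase profiling panel, HIPK2 being one panel member.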
For a further test, the target named is Insulin receptor (Homo sapiens, UniProt P06213). Format: functional.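 Note: insulin receptor kinase tested as one member of a kinome-wide kinase panel.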
Test [13] has as its target Serine/threonine-protein kinase pim-3 (Homo sapiens, UniProt Q86V86). Format: functional.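 Note: value obtained as one member of a broad kinase panel profiling effort.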
For test [14], the target named is Proto-oncogene tyrosine-protein kinase Src (Homo sapiens, UniProt P12931). Format: functional.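 Note: SRC entry within a kinome-wide kinase profiling panel.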
Test [15] has as its target Mitogen-activated protein kinase kinase kinase kinase 2 (Homo sapiens, UniProt Q12851). It counts as functional.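 Note: measured as one member of a kinome-wide kinase panel, with MAP4K2 as the panel entry.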
For test [16], the target named is Tyrosine-protein kinase ABL1 (Homo sapiens, UniProt P00519). Format: functional.
The target of the next test is Ephrin type-A receptor 2 (Homo sapiens, UniProt P29317). It counts as functional.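 Note: EPHA2 tested as one member of a kinome-wide kinase panel.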
For test [17], the target named is Insulin-like growth factor 1 receptor (Homo sapiens, UniProt P08069). As to the kind of experiment: Navigating the Kinome. Panel member name: IGF1R. It counts as functional.
Test [18] has as its target Interleukin-1 receptor-associated kinase 1 (Homo sapiens, UniProt P51617). Format: functional.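 Note: IRAK1 tested as one member of a kinome panel.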
For test [19], the target named is Protein-tyrosine kinase 6 (Homo sapiens, UniProt Q13882). It counts as functional.
The target of test [20] is Tyrosine-protein kinase Fyn (Homo sapiens, UniProt P06241). Format: functional.
Test [21] deals with 3-phosphoinositide-dependent protein kinase 1 (Homo sapiens, UniProt O15530). Format: functional.
The target in test [22] is BDNF/NT-3 growth factors receptor (Homo sapiens, UniProt Q16620). It counts as functional.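 Note: NTRK2 measured as one member of a broad kinome-wide kinase profiling panel.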
The next test deals with SUMO-activating enzyme (Homo sapiens, UniProt Q9UBT2). As to the kind of experiment: blockers of SAE1/SAE2–UBC9 SUMO transfer – biochemical, HTRF, uHTS, primary screen (AID 2006). Format: protein-complex assay. Background: TR-FRET usually uses a lanthanide donor and a delayed reading to cut background.
Chain of SUMO-activating enzyme (Q9UBE0 whole entry): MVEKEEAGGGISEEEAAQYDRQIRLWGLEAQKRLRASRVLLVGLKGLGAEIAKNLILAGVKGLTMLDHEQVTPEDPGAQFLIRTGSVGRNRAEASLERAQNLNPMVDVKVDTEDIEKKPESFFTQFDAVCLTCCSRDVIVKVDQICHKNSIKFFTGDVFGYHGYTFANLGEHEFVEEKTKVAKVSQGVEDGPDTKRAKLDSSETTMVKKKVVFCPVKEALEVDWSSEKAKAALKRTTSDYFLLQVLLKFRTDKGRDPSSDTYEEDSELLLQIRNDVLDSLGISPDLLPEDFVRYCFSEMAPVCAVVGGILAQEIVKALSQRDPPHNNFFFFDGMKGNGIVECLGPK
Chain of SUMO-activating enzyme (Q9UBT2 whole entry): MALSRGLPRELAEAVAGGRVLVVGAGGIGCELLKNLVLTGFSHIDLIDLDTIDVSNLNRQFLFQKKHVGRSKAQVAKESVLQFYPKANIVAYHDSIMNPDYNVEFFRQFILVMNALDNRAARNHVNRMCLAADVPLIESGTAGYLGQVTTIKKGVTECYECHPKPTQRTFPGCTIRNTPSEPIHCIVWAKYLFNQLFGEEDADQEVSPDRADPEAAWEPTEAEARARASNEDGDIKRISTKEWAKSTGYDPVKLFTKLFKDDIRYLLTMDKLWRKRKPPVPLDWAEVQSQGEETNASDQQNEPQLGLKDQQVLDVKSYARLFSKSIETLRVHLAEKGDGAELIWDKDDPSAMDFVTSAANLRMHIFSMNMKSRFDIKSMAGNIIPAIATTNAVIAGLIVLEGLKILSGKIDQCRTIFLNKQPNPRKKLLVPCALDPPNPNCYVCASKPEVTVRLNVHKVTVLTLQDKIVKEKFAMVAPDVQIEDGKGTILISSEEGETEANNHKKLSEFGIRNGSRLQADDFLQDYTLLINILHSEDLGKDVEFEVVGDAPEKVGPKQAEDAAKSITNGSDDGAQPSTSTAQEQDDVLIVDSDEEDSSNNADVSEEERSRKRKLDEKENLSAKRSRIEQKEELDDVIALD

Chain of Protein-tyrosine kinase 6 (Q13882 whole entry): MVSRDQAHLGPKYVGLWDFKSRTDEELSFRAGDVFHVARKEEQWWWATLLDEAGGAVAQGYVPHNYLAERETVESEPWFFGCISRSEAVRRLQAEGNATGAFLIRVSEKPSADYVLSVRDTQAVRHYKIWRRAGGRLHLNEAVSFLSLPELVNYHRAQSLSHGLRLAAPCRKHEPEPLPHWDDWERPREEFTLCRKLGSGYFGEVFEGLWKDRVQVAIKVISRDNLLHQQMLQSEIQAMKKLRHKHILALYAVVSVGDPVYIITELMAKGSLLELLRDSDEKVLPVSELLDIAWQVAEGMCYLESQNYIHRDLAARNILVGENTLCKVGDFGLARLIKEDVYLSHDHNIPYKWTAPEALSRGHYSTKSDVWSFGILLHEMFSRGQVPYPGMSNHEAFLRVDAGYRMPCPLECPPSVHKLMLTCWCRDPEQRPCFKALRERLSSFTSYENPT
Chain of Mitogen-activated protein kinase 8 (P45983 whole entry): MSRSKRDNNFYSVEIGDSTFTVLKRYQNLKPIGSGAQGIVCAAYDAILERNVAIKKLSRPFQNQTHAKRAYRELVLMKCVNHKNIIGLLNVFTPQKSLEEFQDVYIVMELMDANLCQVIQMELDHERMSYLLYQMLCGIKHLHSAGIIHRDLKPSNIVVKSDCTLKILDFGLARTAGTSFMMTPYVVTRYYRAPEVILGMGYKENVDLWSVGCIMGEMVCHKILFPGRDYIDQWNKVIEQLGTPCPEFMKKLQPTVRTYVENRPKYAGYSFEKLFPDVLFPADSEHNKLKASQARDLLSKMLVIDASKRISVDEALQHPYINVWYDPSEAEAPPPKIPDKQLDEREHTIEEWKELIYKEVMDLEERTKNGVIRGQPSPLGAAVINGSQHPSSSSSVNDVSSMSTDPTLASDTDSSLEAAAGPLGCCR
Chain of Mitogen-activated protein kinase kinase kinase kinase 2 (Q12851 whole entry): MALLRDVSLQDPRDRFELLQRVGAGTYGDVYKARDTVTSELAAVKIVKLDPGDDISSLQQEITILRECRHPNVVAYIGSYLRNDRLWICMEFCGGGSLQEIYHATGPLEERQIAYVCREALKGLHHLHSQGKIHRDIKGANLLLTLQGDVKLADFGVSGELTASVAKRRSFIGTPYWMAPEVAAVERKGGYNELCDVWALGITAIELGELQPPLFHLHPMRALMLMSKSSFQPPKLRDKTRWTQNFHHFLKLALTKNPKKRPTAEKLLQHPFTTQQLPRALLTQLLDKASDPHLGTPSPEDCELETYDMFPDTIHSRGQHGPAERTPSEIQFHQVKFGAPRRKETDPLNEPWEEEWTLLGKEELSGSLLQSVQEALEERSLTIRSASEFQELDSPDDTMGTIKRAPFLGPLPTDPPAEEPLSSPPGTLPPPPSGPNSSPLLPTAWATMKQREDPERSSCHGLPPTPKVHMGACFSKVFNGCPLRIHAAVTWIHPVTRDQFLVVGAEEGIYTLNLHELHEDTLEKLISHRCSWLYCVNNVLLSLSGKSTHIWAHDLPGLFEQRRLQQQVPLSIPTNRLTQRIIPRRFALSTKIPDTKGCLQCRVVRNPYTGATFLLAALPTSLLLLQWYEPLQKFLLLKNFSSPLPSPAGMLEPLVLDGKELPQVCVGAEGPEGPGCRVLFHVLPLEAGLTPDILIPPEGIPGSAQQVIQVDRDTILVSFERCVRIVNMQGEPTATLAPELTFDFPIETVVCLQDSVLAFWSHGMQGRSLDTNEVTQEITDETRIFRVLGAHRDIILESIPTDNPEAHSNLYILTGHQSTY
Chain of 3-phosphoinositide-dependent protein kinase 1 (O15530 whole entry): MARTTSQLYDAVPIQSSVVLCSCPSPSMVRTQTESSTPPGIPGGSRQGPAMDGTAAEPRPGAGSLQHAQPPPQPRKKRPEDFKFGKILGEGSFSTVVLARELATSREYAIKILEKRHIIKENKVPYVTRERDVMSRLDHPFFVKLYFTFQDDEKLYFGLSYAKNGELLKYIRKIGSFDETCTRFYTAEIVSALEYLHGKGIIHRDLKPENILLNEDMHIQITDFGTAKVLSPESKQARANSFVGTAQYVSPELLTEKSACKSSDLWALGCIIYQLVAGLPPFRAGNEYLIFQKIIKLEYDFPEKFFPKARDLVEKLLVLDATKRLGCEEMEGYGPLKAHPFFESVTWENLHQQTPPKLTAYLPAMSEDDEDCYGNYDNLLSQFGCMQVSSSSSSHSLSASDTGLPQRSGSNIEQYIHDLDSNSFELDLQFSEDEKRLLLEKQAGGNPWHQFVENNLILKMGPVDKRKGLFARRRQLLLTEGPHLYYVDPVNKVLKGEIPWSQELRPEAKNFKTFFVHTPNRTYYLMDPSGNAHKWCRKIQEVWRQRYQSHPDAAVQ
Chain of Insulin receptor (P06213 28-758 limits assumed): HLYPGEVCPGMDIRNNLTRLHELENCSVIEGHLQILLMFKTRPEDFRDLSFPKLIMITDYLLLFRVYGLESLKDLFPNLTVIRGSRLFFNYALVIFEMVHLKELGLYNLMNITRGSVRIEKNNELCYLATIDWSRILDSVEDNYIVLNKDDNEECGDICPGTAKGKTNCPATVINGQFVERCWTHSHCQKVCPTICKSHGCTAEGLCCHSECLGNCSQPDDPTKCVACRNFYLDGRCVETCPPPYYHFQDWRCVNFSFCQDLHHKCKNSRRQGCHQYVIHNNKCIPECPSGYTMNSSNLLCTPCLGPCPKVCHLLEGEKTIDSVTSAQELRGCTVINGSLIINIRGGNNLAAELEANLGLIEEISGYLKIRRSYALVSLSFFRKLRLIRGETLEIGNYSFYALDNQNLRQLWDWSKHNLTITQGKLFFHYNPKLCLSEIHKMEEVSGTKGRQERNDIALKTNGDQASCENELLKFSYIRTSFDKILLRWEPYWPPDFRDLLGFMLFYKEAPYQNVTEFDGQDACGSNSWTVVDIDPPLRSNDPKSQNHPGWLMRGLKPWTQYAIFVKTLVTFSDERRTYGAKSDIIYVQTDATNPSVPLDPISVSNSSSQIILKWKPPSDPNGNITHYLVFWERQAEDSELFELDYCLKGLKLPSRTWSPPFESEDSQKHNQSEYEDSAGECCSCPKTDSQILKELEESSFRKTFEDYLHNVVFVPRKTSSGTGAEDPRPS
Chain of Insulin receptor (P06213 763-1382 limits assumed): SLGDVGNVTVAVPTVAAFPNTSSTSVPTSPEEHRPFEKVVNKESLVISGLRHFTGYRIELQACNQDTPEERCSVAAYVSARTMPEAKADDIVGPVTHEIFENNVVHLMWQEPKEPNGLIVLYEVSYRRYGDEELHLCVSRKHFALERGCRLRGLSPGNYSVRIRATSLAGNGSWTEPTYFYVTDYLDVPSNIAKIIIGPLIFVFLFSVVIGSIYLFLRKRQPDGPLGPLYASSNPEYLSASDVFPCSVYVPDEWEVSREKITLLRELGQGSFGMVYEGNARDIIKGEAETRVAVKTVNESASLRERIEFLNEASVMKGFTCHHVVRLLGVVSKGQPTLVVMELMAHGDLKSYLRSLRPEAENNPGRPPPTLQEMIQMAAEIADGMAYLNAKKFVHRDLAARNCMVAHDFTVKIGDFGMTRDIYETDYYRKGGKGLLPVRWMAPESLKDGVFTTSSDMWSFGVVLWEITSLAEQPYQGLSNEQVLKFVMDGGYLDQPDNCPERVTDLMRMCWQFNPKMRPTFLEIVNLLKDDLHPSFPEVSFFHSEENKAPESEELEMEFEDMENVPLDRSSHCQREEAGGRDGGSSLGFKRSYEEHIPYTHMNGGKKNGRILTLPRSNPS
Chain of Nonstructural protein 1 (Q194T2 whole entry): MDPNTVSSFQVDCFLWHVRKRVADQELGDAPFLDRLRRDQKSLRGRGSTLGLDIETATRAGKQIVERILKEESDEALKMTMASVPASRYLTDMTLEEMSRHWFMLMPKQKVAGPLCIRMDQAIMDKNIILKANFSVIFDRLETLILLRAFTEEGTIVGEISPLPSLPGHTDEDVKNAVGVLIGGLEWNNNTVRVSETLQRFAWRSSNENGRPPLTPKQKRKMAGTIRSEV

For the molecule `O=C1C=C(N2CCCCC2)c2ccccc2C1=O`, the EC50 in the test on Streptococcus is > 50000 nM (not active).
As to `O=C(CCc1ccccc1)NNc1cc(N2CCCCC2)nc(N2CCCCC2)n1`, the IC50 (in [1]; on Caspase-3) was > 99000 nM (inactive) throughout.
Regarding `O=C(O)C1Nc2c(O)cc(Cl)c([N+](=O)[O-])c2C2C=CCC12` (centres undefined), on Large T antigen, the 50% inhibitory concentration (IC50) was 9860 nM (active).
Regarding `Oc1ccc(N=Nc2c(O)ccc3ccccc23)cc1`, the IC50 is 17500 nM (active) at Nonstructural protein 1 and > 118000 nM (inactive) in test [2].
Take `Clc1ccc2nc(-c3ccc(Br)s3)cn2c1`: in test [3], the IC50 is > 80000 nM (inactive). The EC50 in test [4] was > 67500 nM (inactive).
As to `Cc1n[nH]c2ccc(-c3cncc(OCC(N)Cc4cccc(Cl)c4)c3)cc12` (centres undefined), the Ki was > 2000 nM (inactive) in [5]; > 7940 nM (inactive) in test [6]; > 3980 nM (inactive) in test [7]; 501 nM (active) in test [8]; 2510 nM (active) in [9]; > 1260 nM (inactive) in test [10]. In addition, the Ki is > 1260 nM (inactive) in test [11]; 79.4 nM (active) in [12]; 3160 nM (active) on Insulin receptor; 10 nM (active) in [13]; > 2000 nM (inactive) in [14]; 63.1 nM (active) in test [15]. Also, the Ki in [16] was > 631 nM (inactive); at Ephrin type-A receptor 2 it was > 3160 nM (inactive); in test [17] it was > 2000 nM (inactive); in test [18] it was 1260 nM (active); in test [19] it was > 2510 nM (inactive); in [20], > 794 nM (inactive). Further, the results for the Ki in [21] and in test [22] were 2000 nM (active) and > 5010 nM (inactive), respectively.
Turning to `CC(=O)NC1C(=O)N(CCN2CCOCC2)c2ccc(F)cc21` (centres undefined), on SUMO-activating enzyme, the half-inhibitory concentration (IC50) is 12300 nM (active).
